Laboratory results: publication PMC6692352, “DF2726A, a new IL-8 signalling inhibitor, is able to counteract chemotherapy-induced neuropathic pain” (Scientific Reports, 2019)

Key:
F11 cells = experiment: Cell viability assay in F11 neuronal cells; conditions: 24 h, 5–60 µM
Method: For the subsequent experiments, DF2726A was used at a final concentration of 1 µM, and oxaliplatin at a final concentration of 20 µM. For comparison, paclitaxel alone or in combination with DF2726A was also used.
F11 hybridoma cells (ECACC 08062601), chosen as a model of DRG neurons[22],[32],[33] were cultivated in DMEM (Euroclone, Milan, Italy) supplemented with 10% FBS (Sigma-Aldrich, St. Louis, MO, USA), 1% penicillin/streptomycin (Euroclone, MI, Italy) and 1% glutamine (Euroclone) at 37 °C, in humidified 95% air with 5% CO2 atmosphere. For all the experiments, cells were used at 18th passage.
Supplementary Fig. 2: Effect of DF2726A, oxaliplatin and paclitaxel treatment on neuronal cell
viability. Cell viability assay of F11 cells after treatment at different concentrations of DF 2726A
(DF; 1-20 µM), oxaliplatin (OXA, 5-60 µM), paclitaxel (PAC, 5-20 nM) and the combination of 20
µM oxaliplatin+DF2726A (Oxa+DF) and paclitaxel+DF2726A (PAC+DF) at 24 h. Data are means

[1] = design: method as in PMID 28423567; conditions: p.o. administration ref 22; cited from earlier work

Compound	Neuronal cell viability (F11 cells)	half-life [1]
O=C1[O][Pt]2([NH][C@@H]3CCCC[C@H]3[NH]2)[O]C1=O [oxaliplatin, reference compound]	ineffective in modulating neuronal cell viability	–
CC(C)Cc1ccc([C@@H](C)C(=O)NS(C)(=O)=O)cc1 [reparixin]	–	1.78 h
